# In patent US11897796B2, “Compositions of heterocyclic compounds and uses as sulfidogenesis inhibitors” (ChampionX USA Inc., priority 2020, dated 2024):
# Where two headings read alike, the source gives them in different places.
# How the values were obtained:
# [1] = tested on: sulfate reducing microorganisms
# Procedure: Sample preparation and test conditions. The sulfidogenesis inhibitor MBO was tested using a pressurized bioreactor system. Two sand packed bioreactors were used to establish a sour population of sulfate reducing microorganisms with a seawater mixture for one month. The pressurized bioreactors maintained a flow rate of 0.05 mL/minute and were held at a temperature of 30° C. and a pressure of 1000 psig. Once both bioreactors contained sufficient sulfide in the effluent, one bioreactor remained untreated (control bioreactor) and the other bioreactor was dosed with MBO (test bioreactor) throughout the remaining four months of the study. The sulfide levels were measured in the control and test bioreactors weekly. MBO was dosed continuously in increasing increments at 25, 50, 100, and 150 ppm for roughly five weeks of the experiment. Next, a 4-hour batch treatment of MBO at 500 ppm was also tested twice followed by a low continuous dosage of MBO at 80 ppm and 100 ppm, respectively. The pH of the system was then decreased from 8.5 to 7.5 and then 7.5 to 6.5 to observe the effect of pH on MBO's efficacy at inhibiting sulfidogenesis. Once the pH of the bioreactor had stabilized at 6.5, MBO was dosed continuously in decreasing increments at 150 ppm, 100 ppm, 80 ppm and 50 ppm. At the end of the study, the dosing of MBO was ceased to monitor when sulfide levels would return in the test bioreactor.
# The pH measured in the system and the dosage of MBO throughout the study is recorded as well.
# [2] = tested on: sulfur-utilizing prokaryotes; settings: after 8 weeks; for Average reduction in biogenic sulfide: compared to untreated; for Average Sulfide: field water, 37° C.
# Procedure: Sample Preparation and Test Conditions. Field water samples were collected and shipped under anoxic conditions. Prior to setting up the bottle test, the water was sparged with carbon dioxide in a nitrogen environment overnight to remove the existing hydrogen sulfide. The water sample was then supplemented with 50 mg/L acetate, 5 mg/L propionate, and 5 mg/L butyrate and trace elements and vitamins. Fluids (100 mL) were aliquoted into 125 mL glass serum bottles containing a carbon steel 1018 ball bearing. Triplicate experiments were performed. Three bottles were left untreated and three bottles were treated each with 50 ppm and 80 ppm of the desired chemistry. Samples were incubated at 37° C. for 8 weeks.
# (§1) A sulfide test kit (Code 4456-01, available from LaMotte) was used to test the efficacy of 3,3′-methylenebis[5-methyloxazolidine]
# [3] = tested on: sulfur-utilizing prokaryotes; settings: after 6 weeks; for Average Sulfide: Source 2 field water, 37° C.
# Procedure: Sample Preparation and Test Conditions. Field water samples were treated with additional organic acids (e.g., Source 2) and were collected and shipped under anoxic conditions. Prior to setting up the bottle test, the water was sparged with carbon dioxide in a nitrogen environment overnight to remove the existing hydrogen sulfide. The water sample was then supplemented with 1 mM acetate, trace elements, and vitamins. Fluids (100 mL) were aliquoted into 125 mL glass serum bottles containing a carbon steel 1018 ball bearing. Triplicate experiments were performed. Three bottles were left untreated and three bottles were treated each at a concentration of 80 ppm, 120 ppm, and 150 ppm of the desired chemistry based on the total weight of the sample. Samples were incubated at 37° C. for 6 weeks.
# as §1
smiles,measurement,setting,value
"CC1CN(CN2COC(C)C2)CO1 (stereo not drawn) [MBO, 3,3′-methylenebis[5-methyloxazolidine]]",Test Bioreactor Sulfide,"[1]; Day 21 (as printed, between days 30 and 35), dosage of MBO 25 ppm, pH 8.5",44.6 mg/L
same,Test Bioreactor Sulfide,"[1]; Day 30, dosage of MBO 25 ppm, pH 8.5",34.9 mg/L
same,Test Bioreactor Sulfide,"[1]; Day 35, dosage of MBO 25 ppm, pH 8.5",45.7 mg/L
same,Test Bioreactor Sulfide,"[1]; Day 37, dosage of MBO 50 ppm, pH 8.5",46.2 mg/L
same,Test Bioreactor Sulfide,"[1]; Day 38, dosage of MBO 50 ppm, pH 8.5",48.7 mg/L
same,Test Bioreactor Sulfide,"[1]; Day 42, dosage of MBO 50 ppm, pH 8.5",44.8 mg/L
same,Test Bioreactor Sulfide,"[1]; Day 44, dosage of MBO 100 ppm, pH 8.5",44.2 mg/L
same,Test Bioreactor Sulfide,"[1]; Day 45, dosage of MBO 100 ppm, pH 8.5",41.0 mg/L
same,Test Bioreactor Sulfide,"[1]; Day 46, dosage of MBO 100 ppm, pH 8.5",10.3 mg/L
same,Test Bioreactor Sulfide,"[1]; Day 49, dosage of MBO 100 ppm, pH 8.5",3.1 mg/L
same,Test Bioreactor Sulfide,"[1]; Day 51, dosage of MBO 100 ppm, pH 8.5",0.7 mg/L
same,Test Bioreactor Sulfide,"[1]; Day 52, dosage of MBO 100 ppm, pH 8.5",0.5 mg/L
same,Test Bioreactor Sulfide,"[1]; Day 53, dosage of MBO 100 ppm, pH 8.5",3.1 mg/L
same,Test Bioreactor Sulfide,"[1]; Day 56, dosage of MBO 100 ppm, pH 8.5",5.3 mg/L
same,Test Bioreactor Sulfide,"[1]; Day 58, dosage of MBO 150 ppm, pH 8.5",4.9 mg/L
same,Test Bioreactor Sulfide,"[1]; Day 60, dosage of MBO 150 ppm, pH 8.5",1.0 mg/L
same,Test Bioreactor Sulfide,"[1]; Day 63, dosage of MBO 150 ppm, pH 8.5",21.5 mg/L
same,Test Bioreactor Sulfide,"[1]; Day 65, dosage of MBO 150 ppm, pH 8.5",19.9 mg/L
same,Test Bioreactor Sulfide,"[1]; Day 67, dosage of MBO 150 ppm, pH 8.5",25.7 mg/L
same,Test Bioreactor Sulfide,"[1]; Day 70, dosage of MBO 150 ppm, pH 8.5",29.1 mg/L
same,Test Bioreactor Sulfide,"[1]; Day 72, dosage of MBO 0 ppm (dosing paused after 150 ppm), pH 8.5",29.4 mg/L
same,Test Bioreactor Sulfide,"[1]; Day 74, dosage of MBO 0 ppm (dosing paused after 150 ppm), pH 8.5",21.9 mg/L
same,Test Bioreactor Sulfide,"[1]; Day 77, dosage of MBO 0 ppm (dosing paused after 150 ppm), pH 8.5",32.0 mg/L
same,Test Bioreactor Sulfide,"[1]; Day 78, dosage of MBO 500 ppm (4 hours batch) + 80 ppm, pH 8.5",37.2 mg/L
same,Test Bioreactor Sulfide,"[1]; Day 79, dosage of MBO 80 ppm after 500 ppm batch, pH 8.5",37.8 mg/L
same,Test Bioreactor Sulfide,"[1]; Day 80, dosage of MBO 80 ppm after 500 ppm batch, pH 8.5",23.0 mg/L
same,Test Bioreactor Sulfide,"[1]; Day 81, dosage of MBO 80 ppm after 500 ppm batch, pH 8.5",27.7 mg/L
same,Test Bioreactor Sulfide,"[1]; Day 84, dosage of MBO 80 ppm after 500 ppm batch, pH 8.5",31.8 mg/L
same,Test Bioreactor Sulfide,"[1]; Day 86, dosage of MBO 80 ppm after 500 ppm batch, pH 3.5 (so in the source)",32.0 mg/L
same,Test Bioreactor Sulfide,"[1]; Day 88, dosage of MBO 0 ppm (dosing paused after 80 ppm), pH 8.5",29.1 mg/L
same,Test Bioreactor Sulfide,"[1]; Day 91, dosage of MBO 0 ppm (dosing paused after 80 ppm), pH 8.5",25.6 mg/L
same,Test Bioreactor Sulfide,"[1]; Day 93, dosage of MBO 500 ppm (4 hours batch) + 100 ppm, pH 8.5",30.7 mg/L
same,Test Bioreactor Sulfide,"[1]; Day 94, dosage of MBO 100 ppm after 500 ppm batch, pH 8.5",24.1 mg/L
same,Test Bioreactor Sulfide,"[1]; Day 95, dosage of MBO 100 ppm after 500 ppm batch, pH 8.5",24.2 mg/L
same,Test Bioreactor Sulfide,"[1]; Day 98, dosage of MBO 100 ppm after 500 ppm batch, pH 8.5",20.3 mg/L
same,Test Bioreactor Sulfide,"[1]; Day 100, dosage of MBO 100 ppm, pH 7.5",20.1 mg/L
same,Test Bioreactor Sulfide,"[1]; Day 101, dosage of MBO 100 ppm, pH 7.5",9.9 mg/L
same,Test Bioreactor Sulfide,"[1]; Day 102, dosage of MBO 100 ppm, pH 7.5",16.6 mg/L
same,Test Bioreactor Sulfide,"[1]; Day 105, dosage of MBO 100 ppm, pH 7.5",22.5 mg/L
same,Test Bioreactor Sulfide,"[1]; Day 107, dosage of MBO 100 ppm, pH 6.5",20.2 mg/L
same,Test Bioreactor Sulfide,"[1]; Day 108, dosage of MBO 100 ppm, pH 6.5",23.4 mg/L
same,Test Bioreactor Sulfide,"[1]; Day 109, dosage of MBO 100 ppm, pH 6.5",20.9 mg/L
same,Test Bioreactor Sulfide,"[1]; Day 112, dosage of MBO 100 ppm, pH 6.5",18.2 mg/L
same,Test Bioreactor Sulfide,"[1]; Day 114, dosage of MBO 150 ppm, pH 6.5",16.3 mg/L
same,Test Bioreactor Sulfide,"[1]; Day 115, dosage of MBO 150 ppm, pH 6.5",7.7 mg/L
same,Test Bioreactor Sulfide,"[1]; Day 116, dosage of MBO 150 ppm, pH 6.5",2.9 mg/L
same,Test Bioreactor Sulfide,"[1]; Day 119, dosage of MBO 150 ppm, pH 6.5",0.7 mg/L
same,Test Bioreactor Sulfide,"[1]; Day 121, dosage of MBO 150 ppm, pH 6.5",0.5 mg/L
same,Test Bioreactor Sulfide,"[1]; Day 122, dosage of MBO 150 ppm, pH 6.5",0.5 mg/L
same,Test Bioreactor Sulfide,"[1]; Day 123, dosage of MBO 150 ppm, pH 6.5",0.5 mg/L
same,Test Bioreactor Sulfide,"[1]; Day 126, dosage of MBO 150 ppm, pH 6.5",0.5 mg/L
same,Test Bioreactor Sulfide,"[1]; Day 128, dosage of MBO 100 ppm (decreasing increments), pH 6.5",0.5 mg/L
same,Test Bioreactor Sulfide,"[1]; Day 129, dosage of MBO 100 ppm (decreasing increments), pH 6.5",0.5 mg/L
same,Test Bioreactor Sulfide,"[1]; Day 130, dosage of MBO 100 ppm (decreasing increments), pH 6.5",0.5 mg/L
same,Test Bioreactor Sulfide,"[1]; Day 133, dosage of MBO 100 ppm (decreasing increments), pH 6.5",0.5 mg/L
same,Test Bioreactor Sulfide,"[1]; Day 135, dosage of MBO 80 ppm (decreasing increments), pH 6.5",0.5 mg/L
same,Test Bioreactor Sulfide,"[1]; Day 136, dosage of MBO 80 ppm (decreasing increments), pH 6.5",0.5 mg/L
same,Test Bioreactor Sulfide,"[1]; Day 137, dosage of MBO 80 ppm (decreasing increments), pH 6.5",0.5 mg/L
same,Test Bioreactor Sulfide,"[1]; Day 140, dosage of MBO 80 ppm (decreasing increments), pH 6.5",0.5 mg/L
same,Test Bioreactor Sulfide,"[1]; Day 141, dosage of MBO 50 ppm (decreasing increments), pH 6.5",0.5 mg/L
same,Test Bioreactor Sulfide,"[1]; Day 144, dosage of MBO 50 ppm (decreasing increments), pH 6.5",0.5 mg/L
same,Test Bioreactor Sulfide,"[1]; Day 147, dosage of MBO 50 ppm (decreasing increments), pH 6.5",0.5 mg/L
same,Test Bioreactor Sulfide,"[1]; Day 150, dosage of MBO 0 ppm (dosing ceased at end of study), pH 6.5",0.5 mg/L
same,Test Bioreactor Sulfide,"[1]; Day 151, dosage of MBO 0 ppm (dosing ceased at end of study), pH 6.5",0.5 mg/L
same,Test Bioreactor Sulfide,"[1]; Day 154, dosage of MBO 0 ppm (dosing ceased at end of study), pH 6.5",0.5 mg/L
same,"sulfide levels in the test bioreactor, lowest reached","[1]; dosage of MBO at 100 ppm, initial decrease, sulfide levels started to increase again afterwards",0.5 mg/L
same,sulfide levels in the test bioreactor,"[1]; pH 6.5, dosing MBO at 150 ppm, stayed throughout remainder of study through decreasing dosages",0.5 mg/L
same,effect on sulfide levels in the test bioreactor,[1]; two high batch dosages of MBO at 500 ppm followed by low continuous dosage at 80 and 100 ppm,did not further decrease sulfide levels
same,Average reduction in biogenic sulfide,[2]; MBO 50 ppm,37.03%
same,Average Sulfide,[2]; MBO 50 ppm,4.64 ppm
same,Average reduction in biogenic sulfide,[2]; MBO 80 ppm,93.81%
same,Average Sulfide,[2]; MBO 80 ppm,0.46 ppm
same,Average Sulfide,[3]; MBO 80 ppm,0.09 ppm
same,Average reduction in biogenic sulfide,[3]; MBO 80 ppm,98.4%
same,Average Sulfide,[3]; MBO 120 ppm,0.09 ppm
same,Average reduction in biogenic sulfide,[3]; MBO 120 ppm,98.4%
same,Average Sulfide,[3]; MBO 150 ppm,0.13 ppm
same,Average reduction in biogenic sulfide,[3]; MBO 150 ppm,97.8%
